Three compounds from patent US20180310552A1, “Composition comprising a safener, a fungicide and metalaxyl” (priority 2015, published 2018) can be followed below.

The test system of assay [1] is Fusarium culmorum. The assay is described as follows: Fusarium culmorum (wheat)/seed treatment, greenhouse, 7 days at 20° C. Format: in vivo. The following applies: seed treatment. The text has this:
(§1) According to another aspect of the present invention, in the composition according to the invention, the compound ratio A/B, A/C or A/B/C may be advantageously chosen so as to produce a synergistic effect. A synergistic effect of fungicides is always present when the fungicidal activity of the active compound combinations exceeds the total of the activities of the active compounds when applied individually. The expected activity for a given combination of two or three active compounds can be calculated as follows (cf. Colby, S. R., “Calculating Synergistic and Antagonistic Responses of Herbicide Combinations”, Weeds 1967, 15, 20-22).
(§2) wherein • X denotes the efficacy when using active compound A at an application rate of m ppm (or g/ha), • Y denotes the efficacy when using active compound B (or C) at an application rate of n ppm (or g/ha), • Z denotes the efficacy when using active compound C at an application rate of r ppm (or g/ha), • E1 denotes the efficacy when using active compounds A and B at application rates of m and n ppm (or g/ha), and • E2 denotes the efficacy when using active compounds A and B and C at application rates of m and n and r ppm (or g/ha),
(§3) Here, the efficacy is determined in %. 0% means an efficacy which corresponds to that of the control, whereas an efficacy of 100% means that no infection is observed.
(§4) If the actual fungicidal action exceeds the calculated value, the action of the combination is superadditive, i.e. a synergistic effect is present. In this case, the actually observed efficacy must exceed the value calculated using the above formula for the expected efficacy (E1 or E2).
(§5) The test is performed under greenhouse conditions.
Active compounds solved in N-methyl-2-pyrrolidon, or combinations thereof were diluted with water to the desired dosages. Wheat seeds were treated with these preparations and sown in 7×7 cm pots filled with 1:1 mix of steamed field soil and sand, mixed with a wheat grain culture of Fusarium culmorum.
Pots were incubated in the greenhouse for 7 days at 20° C. […]

The test system of assay [2] is Fusarium culmorum. In words: Fusarium culmorum (wheat)/seed treatment, greenhouse, 7 days at 15° C. (Example 5). Format: in vivo. The following applies: seed treatment.
Text: as §1, §2, §3, §4, §5
Commercially available disease control agents, active compounds solved in N-methyl-2-pyrrolidon, or combinations thereof were diluted with water to the desired dosages. Wheat seeds were treated with these preparations and sown in 6*6 cm pots containing 4 cm of a 1:1 mix of steamed field soil and sand, mixed with a wheat grain culture of Fusarium culmorum.
Pots were incubated in the greenhouse for 7 days at 15° C.
Assessment consisted of counting of emerged seedlings and diseased plants. 0% means an efficacy which corresponds to that of the untreated control (infection rate was 73%), while an efficacy of 100% means that all seedlings have emerged and are healthy.

Turning to `CCOC(=O)C1=NN(c2ccc(Cl)cc2Cl)C(C)(C(=O)OCC)C1` (racemic) [Mefenpyr-diethyl, diethyl (RS)-1-(2,4-dichlorophenyl)-5-methyl-2-pyrazoline-3,5-dicarboxylate], the Efficacy in % in the assay with Fusarium culmorum [1] (60 g a.i./dt) is on record as 9%; in the assay on Fusarium culmorum [2] (25 g a.i./kg seed), 9%; with Fusarium culmorum [2] (50 g a.i./kg seed), 0%.
As to `OC(Cc1ccccc1Cl)(Cn1[nH]cnc1=S)C1(Cl)CC1` (stereo not shown) [Prothioconazole, 2-[2-(1-chlorocyclopropyl)-3-(2-chlorophenyl)-2-hydroxypropyl]-1,2-dihydro-3H-1,2,4-triazole-3-thione], the Efficacy in % in the assay with Fusarium culmorum [1] (16 g a.i./dt) was determined as 45%; in the assay with Fusarium culmorum [2] (15 g a.i./kg seed) it was 64%.
Regarding `COCC(=O)N(c1c(C)cccc1C)C(C)C(=O)OC` (racemic) [Metalaxyl, methylN-(2,6-dimethylphenyl)-N-(methoxyacetyl)-DL-alaninate], the figures for the Efficacy in % in the assay with Fusarium culmorum [1] (6 g a.i./dt) and in the assay on Fusarium culmorum [2] (2 g a.i./kg seed) were 0% and 18%, respectively.
